Test results from EP0012729A1, “Therapeutic compositions containing as active compound a substituted acetic acid or its salt” ("IBIS" ISTITUTO BIOCHIMICO SPERIMENTALE S.p.A., priority 1978, dated 1980).

Tested on: Wistar rats
Experiment: Choleretic activity in the rat, bile fistula method
Format: in vivo
Conditions: for Peak choleresis time of appearance / Peak choleresis % increase / Duration index: 200 mg/kg p.o. (dose given for 1620 only); for Peak choleresis % increase: increase over controls as percentage of base choleresis; for Duration index: time for halving the maximum choleresis increase; for Flow: 200 mg/kg p.o.; for ml of bile flow ± s.e.: second series
Source text: It is known that the primary effect of a choleretic agent is to increase the bile flow and the quantity of solid substances excreted with the bile. A good choleretic must provide this effect in a sufficiently intense and prolonged manner. In addition, as in the case of all drugs, it must have low acute toxicity and good general tolerability, but in particular must be free from toxic effects on the organ on which it is required to act, i.e. the liver, whether this is in a normal or pathological state. The analysis of the new product in comparison with the best known products for the same therapeutic use has therefore been focused on these aspects. The choleretic activity of the new product has been determined in the rat by using the bile fistula method. Wistar rats of both sexes and having a weight of between 180 and 240 g were used.
The animals, which were kept fasting for 12 hours but with free access to water, were narcotised by ethyl urethane in a dose of 1 g/kg by intra peritoneal or intramuscular injection.
After binding the animals to the retention bed, a median laparatomy was carried out, and when the bile duct had been isolated a cannula needle was inserted into it. A polythene tube was then inserted into those ani mals which were to receive the products intraduodenally, after which a su ture was carried out on the abdominal wall, and the bile was allowed to discharge for 30 minutes after inserting the cannula in the bile duct, so as to allow the discharge to become normal. The bile was then collec ted for one hour.
Having determined the volume of bile discharged during this first hour of collection (base volume), the products under examination were administered at the predetermined doses and by the predetermined methods. The bile excreted by the individual animals was then collected over each hour for a further six hours.
During the experiments, the animals were kept at ambient temperature of about 22°C, and at regular intervals of two hours received 10 ml/kg of physiological solution s.c.
The liquids were administered at a temperature of 37°C.
The bile flow and cholesterol excretion were determined on those bile fractions excreted by the animals over each hour starting from the base hour until the end of the experiment
The dry residue (R.So) was determined on the bile fraction excreted during the base hour and on the total bile fractions excreted during the sub sequent hours. For practical reasons, the determination of the dry residue and of the cholesterol (carried out by the Sperry & Webb method) were carried out on the pool of bile excreted by the entire group of animals subjected to the same treatment instead of on the bile fractions excreted by the individual animals (which was sometimes insufficient for determining the cholesterol).
In compiling the graphs, the differences between the choleresis in the treated animals and that in the controls was calculated over the considered time intervals, and expressed as a percentage of the base choleresis. For this calculation, the following formula was used: [formula] where Cn and C' represent the choleresis (in ml/kg/h for the bile flow, and in mg/kg/h for the dry residue) determined over the considered time interval for the group of treated animals and the group of controls respectively. Cb and C'b represent the base choleresis in the group of treated animals and group of controls respectively.
This index was calculated as the time for halving the maximum choleresis increase recorded under their effect.

Compound | Peak choleresis time of appearance | Peak choleresis % increase | Duration index | Flow (0 (base hour)) | Flow (1h) | Flow (2h) | Flow (3h) | Flow (4h) | Flow (5h) | Flow (6h) | further results
dihydroxybutylether [Dihydroxydibutyl-ether] | 1st hour | 49% | 45' | 3,36±0,19 ml/kg/h | 5,10±0,23 ml/kg/h | 3,79±0,18 ml/kg/h | 3,08±0,15 ml/kg/h | 2,68±0,15 ml/kg/h | 1,97±0,05 ml/kg/h | 1,77±0,11 ml/kg/h | –
CCC(C(=O)O)C1(O)CCC(c2ccccc2)CC1 (stereo not drawn) [α-(1-hydroxy--4-phenylcyclohexyl)butyric acid] | 1st hour | 105% | 180' | 2,70±0,25 ml/kg/h | 5,60±0,51 ml/kg/h | 5,42±0,47 ml/kg/h | 4,63±0,28 ml/kg/h | 3,68±0,18 ml/kg/h | 3,05±0,12 ml/kg/h | 2,70±0,17 ml/kg/h | ml of bile flow ± s.e. (oral by gastric probe 50 mg/kg, 0 (base values)): 2,8±0,22 ml; ml of bile flow ± s.e. (oral by gastric probe 50 mg/kg, 1 h): 3,2±0,11 ml; ml of bile flow ± s.e. (oral by gastric probe 50 mg/kg, 2 h): 3,0±0,12 ml; ml of bile flow ± s.e. (oral by gastric probe 50 mg/kg, 3 h): 2,9±0,10 ml; ml of bile flow ± s.e. (oral by gastric probe 50 mg/kg, 4 h): 2,8±0,12 ml; ml of bile flow ± s.e. (oral by gastric probe 50 mg/kg, 5 h): 2,5±0,10 ml; ml of bile flow ± s.e. (oral by gastric probe 50 mg/kg, 6 h): 2,0±0,11 ml; ml of bile flow ± s.e. (oral by gastric probe 100 mg/kg, 0 (base values)): 2,6±0,17 ml; ml of bile flow ± s.e. (oral by gastric probe 100 mg/kg, 1 h): 3,7±0,13 ml; ml of bile flow ± s.e. (oral by gastric probe 100 mg/kg, 2 h): 3,6±0,14 ml; ml of bile flow ± s.e. (oral by gastric probe 100 mg/kg, 3 h): 3,4±0,11 ml; ml of bile flow ± s.e. (oral by gastric probe 100 mg/kg, 4 h): 3,0±0,11 ml; ml of bile flow ± s.e. (oral by gastric probe 100 mg/kg, 5 h): 2,9±0,13 ml; ml of bile flow ± s.e. (oral by gastric probe 100 mg/kg, 6 h): 2,1±0,13 ml
